Entries after “also recorded” stand apart in the source; their conditions may differ. Read-outs that look alike come from different tables or passages of the source.
What was measured:
[1] = test system: antigen-induced bronchconstriction in rats sensitized with N. brasliensis; assay: AA: antiallergy (anti-anaphylactic) activity against antigen-induced bronchoconstriction in sensitized rats
Description: The animals are subdivided into control and test groups. Test animals receive a drug either orally, intraperitoneally or intravenously and are challenged with intravenous antigen at fixed time intervals after dosing. Antigen-induced increases in tracheal pressure are monitored and reflect the extent of bronchoconstriction.

[2] = test system: guinea pig tracheal chain preparation; assay: SP: spasmolytic activity in vitro, guinea pig tracheal chain preparation; conditions: Cavia porcellus, read-out: SP in vitro C, molar concentration required to produce maximum relaxation
Description: SP Spasmolytic activity evaluated in vitro using guinea pig tracheal chain preparation, and expressed as the molar (M) concentration required to produce maximum relaxation. The method used in that of Castillo and de Beer, J. Pharmac. Expt. Therap. 90, 104, 1947.

[3] = test system: histamine-induced bronchoconstriction in the dog; assay: CP: cardiopulmonary activity against histamine-induced bronchoconstriction in the dog; assay type: in vivo; conditions: histamine challenge
Description: Pretreatment with bronchodilator drugs aims to block the bronchospastic response to histamine. Each dog serves as its own control.

[4] = test system: histamine-induced bronchoconstriction in the guinea pig; assay: BD: bronchodilator activity against histamine-induced bronchoconstriction in the guinea pig; conditions: for inhibition in vivo at 10 mg/kg / inhibition in vivo at 20 mg/kg: Cavia porcellus, po, read-out: BD (guinea pig), % protection
Description: BD Bronchodilator activity evaluated against histamine-induced bronchoconstriction in the guinea pig, and expressed as % protection at the stated time interval (in minutes and hours) post-drug against histamine agonist. Doses are expressed in milligrams per kilogram of body weight (mpk) per os (po) or intraperitoneally (ip).
A modification of the method of Siegmund. O.H., et al., J. Pharmacol. and Exp. Therap. 90:254-9, 1947, is used. Healthy guinea pigs weighing from 250 to 300 grams are placed four at a time and separated by wiring screening in an 11 liter plastic chamber, at the time of peak activity following drug administration. The challenge consists of histamine diphosphate (1% solution) aerosolized in a de Vilbiss -40 nebulizer at 200 mm Hg. Times for prostration are recorded.
Per cent protection is calculated as follows: [formula] wherein the times are measured in seconds.
In interpreting the BD data it should be noted that a dose giving less than 40-50% protection is not considered useful. Differences in percent protection of less than 10% are probably not significant.

[5] = test system: passive cutaneous anaphylaxis in the rat; assay: PCA: passive cutaneous anaphylaxis in the rat; assay type: in vivo
Protocol: PCA Antianaphylactic activity against passive cutaneous anaphylaxis in the rat, expressed as % protection against antigen-induced wheal formation.
The method used is that of Ogilvie, B. M., Immunology 12, 113-131 (1967). Reaginic […] antibodies develope in the rat following subcutaneous injection of Nippostrongylus brasiliensis larvae. Antisera, collected 28 days later are injected subcutaneously into new rats.

[6] = LD50 mouse; assay type: in vivo; conditions: in vivo, po
Protocol: (§1) The LD50 was determined in three species, the mouse (male, 18-25 g), the albino rat (female, 150-200 g) and the albino guinea pig (male 180-280 g) by oral administration and in the albino rat by intraperitoneal administration. The animals are fasted overnight prior to testing. Six groups of ten animals are used; five groups are dosed with the test substance, the sixth group serves as a control and receives the drug vehicle at the highest test concentration. The compounds were administered in a 0.5% gum tragacanth solution in distilled water using a constant logarithmic increment in dose. Dose volume ranged from […].
(§2) The animals were housed five per cage (rat and guinea pig) or ten per cage (mouse) with free access to food and water. The number of dead animals was recorded daily for five consecutive days. The total mortality per group of ten for each dose level was recorded and LD50 with Confidence Limits calculated according to the method described by Weil, C.

[7] = test system: mouse; assay: LD50 mouse; assay type: in vivo
Protocol: as §1, §2

[8] = in vivo
Protocol: as §1, §2

[9] = test system: albino rat; assay: in vivo
Protocol: as §1, §2

[10] = Rattus norvegicus, ip, 1 h, read-out: AA (rat), % protection
[11] = Rattus norvegicus, po, 1 h, read-out: AA (rat), % protection
[12] = guinea pig, comparison with corresponding compound

## CCC(C)Cn1c(=O)n(C)c(=O)c2c1nc(C)n2C(=O)OC (stereo not shown) [Compound 4387, 1,8-dimethyl-3-(2-methyl-1-butyl)-7-carbomethoxyxanthine]
[1]; [10]
  inhibition in vivo at 5 mg/kg: 55%
  inhibition in vivo at 75 mg/kg: 70%
[1]; [11]
  inhibition in vivo at 2.5 mg/kg: 72%
  inhibition in vivo at 5 mg/kg: 68%
  inhibition in vivo at 10 mg/kg: 57%
[1]; rat, comparison with 4390
  antiallergy effectiveness, in words: about as effective as the corresponding 3-isobutyl compound (4390)
[2]
  EC (maximum relaxation): 1000 µM
[3]
  cardiopulmonary / bronchodilator activity in the dog, in words: significantly reduce the decrease in pulmonary compliance and increase in pulmonary resistance due to histamine administration; also recorded: about as effective as the corresponding 3-isobutyl compound (4390)
[4]; 0.5 h
  inhibition in vivo at 10 mg/kg: 44%
[4]; 1 h
  inhibition in vivo at 10 mg/kg: 87%
  inhibition in vivo at 20 mg/kg: 94%
[4]; 6 h
  inhibition in vivo at 10 mg/kg: 59%
  inhibition in vivo at 20 mg/kg: 92%
[4]; 10 h
  inhibition in vivo at 10 mg/kg: 37%
[4]; [12]
  bronchodilator effectiveness, in words: shows greater activity; also recorded: about as effective as the corresponding 3-isobutyl compound (4390)
  onset and duration of action, in words: effective at lower doses and for longer duration
[5]; 10 mg/kg po
  Wheal Diameter, % Δ: 41%
  Wheal Diameter, Response (Mean ± S.E.M.): 1.41 ± 0.17 cm
  Wheal Intensity, % Δ: 33%
  Wheal Intensity, Response (Mean ± S.E.M.): 1.65 ± 0.20
[5]; 20 mg/kg po
  Wheal Diameter, % Δ: 57%
  Wheal Diameter, Response (Mean ± S.E.M.): 0.81 ± 0.13 cm
  Wheal Intensity, % Δ: 38%
  Wheal Intensity, Response (Mean ± S.E.M.): 1.18 ± 0.21
[5]; rat passive cutaneous anaphylaxis
  antiallergy activity, in words: effective antiallergy agents
[6]
  LD50: 54.9 mg/kg
[7]
  lethality relative to 4390: about one-half
[8]; guinea pig, po
  LD50: 27.4 mg/kg
[8]; in vivo, rat, ip
  LD50: 18.3 mg/kg
[8]; in vivo, rat, po
  LD50: 60 mg/kg
[9]
  lethality relative to 4390: about one-half

Source: patent publication US4120947A, “Xanthine compounds and method of treating bronchospastic and allergic diseases” (priority 1976, dated 1978)
